Reference: publication PMC11752888 (Frontiers in Microbiology, 2025)

Key:
JTY_0672 = biological target: T1, JTY_0672 (Mycobacterium tuberculosis, UniProt P96941)
T1 construct: gene Rv0653c

[1] = test system: JTY_0672 (TetR family transcriptional regulator) (Mycobacterium bovis BCG Tokyo 172); assay: BLI

T1 sequence (P96941 entry or part of it): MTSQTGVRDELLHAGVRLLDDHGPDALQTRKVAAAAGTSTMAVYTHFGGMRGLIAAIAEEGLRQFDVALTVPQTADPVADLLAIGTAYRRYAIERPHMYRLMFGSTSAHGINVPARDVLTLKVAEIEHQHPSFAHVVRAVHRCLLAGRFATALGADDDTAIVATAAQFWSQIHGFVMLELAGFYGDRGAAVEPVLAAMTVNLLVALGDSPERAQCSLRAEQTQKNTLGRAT

## N[C@@H](CC(=O)O)C(=O)O [Asp]
JTY_0672
  concentration influencing DNA binding: 20 mM

## N[C@@H](CS)C(=O)O [Cys]
JTY_0672
  concentration influencing DNA binding: 4 mM

## N[C@@H](CCC(=O)O)C(=O)O [Glu]
JTY_0672
  concentration influencing DNA binding: 20 mM

## N[C@@H](Cc1cnc[nH]1)C(=O)O [His]
JTY_0672
  concentration influencing DNA binding: 40 mM

## Cc1ncc(C[n+]2csc(CCO)c2C)c(N)n1 [VB1]
JTY_0672
  concentration influencing DNA binding: 8 mM

## O=C(O)c1cccnc1 [VB3]
JTY_0672
  concentration influencing DNA binding: 8 mM

## O=C1O[C@H]([C@@H](O)CO)C(O)=C1O [VC]
JTY_0672
  concentration influencing DNA binding: 4 mM

## ATTCATGGTCAGCGCCTTCCCCGGTGATCCGGATTATCTGCAACCGTCAG (double strand) [JTY_3148 promoter, 50 bp WT C13]
[1]
  Kd: 5.03 µM

## JTY_3148 promoter PCR fragment (biotin)
[1]
  Kd: 2.2 µM
